Results: paper PMC7887271, “Fast acting allosteric phosphofructokinase inhibitors block trypanosome glycolysis and cure acute African trypanosomiasis in mice” (Nature Communications, 2021)

Molecular target: T1, hPFK-P (Homo sapiens, UniProt Q01813)
T1 construct: made in house; host or cells: PFK-deficient Saccharomyces cerevisiae
T1 sequence (Q01813 1-784): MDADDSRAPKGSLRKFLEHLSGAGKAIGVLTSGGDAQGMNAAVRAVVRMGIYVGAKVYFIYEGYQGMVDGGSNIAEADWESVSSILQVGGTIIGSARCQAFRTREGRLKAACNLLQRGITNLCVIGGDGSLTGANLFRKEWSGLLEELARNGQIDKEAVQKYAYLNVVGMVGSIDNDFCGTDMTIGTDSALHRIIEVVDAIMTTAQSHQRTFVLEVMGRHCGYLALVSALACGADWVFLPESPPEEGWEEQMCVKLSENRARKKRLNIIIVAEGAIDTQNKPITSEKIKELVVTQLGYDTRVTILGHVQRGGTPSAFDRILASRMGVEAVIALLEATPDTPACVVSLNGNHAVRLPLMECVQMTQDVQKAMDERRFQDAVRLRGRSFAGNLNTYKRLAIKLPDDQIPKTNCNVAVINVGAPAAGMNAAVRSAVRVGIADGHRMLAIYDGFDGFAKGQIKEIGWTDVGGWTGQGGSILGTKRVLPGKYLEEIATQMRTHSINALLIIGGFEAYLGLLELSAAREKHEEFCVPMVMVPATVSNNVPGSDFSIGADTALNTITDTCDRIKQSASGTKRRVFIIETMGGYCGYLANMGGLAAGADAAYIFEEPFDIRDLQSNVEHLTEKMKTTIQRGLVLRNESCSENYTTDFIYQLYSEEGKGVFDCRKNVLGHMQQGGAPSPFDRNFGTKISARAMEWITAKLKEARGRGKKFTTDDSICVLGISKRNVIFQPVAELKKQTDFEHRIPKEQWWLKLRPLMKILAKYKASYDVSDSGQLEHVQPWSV
Test: ALDO/G3PDH/TIM linked enzyme assay, human PFK-P
Type: biochemical
Settings: aldolase/TIM linked assay, 25 °C; highest concentration 100 µM
Protocol: Enzyme activity was measured using an aldolase/TIM linked assay at 25 °C. […] Experiments were carried out in duplicate. Data are presented as mean values ± standard deviation. […] Source data are provided as a Source Data File. b Kill time of CTCB-405 compared with existing HAT drugs in the clinic. […] Over 99% of trypanosomes were killed in under 30 min compared with much slower killing rates for the other drugs. The points on the graph for CTCB-405 were determined from two independent biological replicate experiments with each time point measured twice (using duplicate technical replicates). The ESD for each point on the graph is between 0.7 and 1.4%. For drugs in clinical use each point on the graph is the average of two technical replicates from one experiment (with a maximum difference of 7.8% for any of the points). Source data are provided as a Source Data File.
In the PFK/PYK/LDH assay, the linked PYK activity acts to convert the ADP produced by PFK back to ATP. As ATP is an inhibitor of human PFK (but not TbPFK) at concentrations higher than ~0.5 mM the regeneration of ATP is likely to affect the assay readout. […] TIM interconverts GA3P and DHAP, and DHAP is reduced to glycerol 3-phosphate by G3PD, alongside the oxidation of NADH to NAD^+, which was measured by observing the change in UV absorbance at 340 nm for 10 minutes at 25° C using a Spectramax© M5 Multimode plate reader. […]

CN(C)CCn1ccc2c(ccn2Cc2ccc(Cl)c(Cl)c2)c1=O [CTCB-405, 1-[(3,4-Dichlorophenyl)methyl]-5-[2-(dimethylamino)ethyl] pyrrolo[3,2-c]pyridin-4-one]
inhibition of hPFK-P: no significant inhibition
